Common to all, as to format: biochemical
The target of one assay is T1, PPIP5K2^KD K54A mutant (Homo sapiens, UniProt O43314, K54A).
T1 construct: The kinase domain of human PPIP5K2 (PPIP5K2^KD; residues 1–366); made in house
T1 sequence (O43314 1-366 K54A): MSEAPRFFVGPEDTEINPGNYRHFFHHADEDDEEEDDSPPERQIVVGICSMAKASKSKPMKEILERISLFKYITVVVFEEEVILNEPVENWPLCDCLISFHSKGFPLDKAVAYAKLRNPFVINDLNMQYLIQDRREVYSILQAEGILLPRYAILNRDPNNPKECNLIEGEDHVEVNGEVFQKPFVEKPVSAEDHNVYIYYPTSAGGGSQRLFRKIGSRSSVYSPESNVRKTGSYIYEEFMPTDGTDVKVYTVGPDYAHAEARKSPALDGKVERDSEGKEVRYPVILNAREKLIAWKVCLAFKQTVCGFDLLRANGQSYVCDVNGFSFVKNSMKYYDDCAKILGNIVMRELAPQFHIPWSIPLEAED
In words: ATPase activity of K54A mutant. Particulars: Figures 7B and 7C. As for the experimental part: (§1) The initial InsP6 concentration was either 500 nM, 70 nM, or 40 nM. Various concentrations of 2,5-di-O-Bn-InsP4 were present as indicated. Radioactivity was assessed using an in-line Flo1 detector. The ADP-driven dephosphorylation of 100 nM 1,5-[PP]2-InsP4 by PPIP5K2^KD was usually determined by a luminescence-based assay of ATP accumulation ([Riley et al., 2012; Weaver et al., 2013]). The IC50 values were determined using GraphPad Prism v6.02 (n ≥ 3). In some experiments, 1,5-[PP]2-[^3H]InsP4 dephosphorylation by PPIP5K2^KD was assayed in 50 μl buffer containing 50 mM KCl, 20 mM HEPES pH 7.0, 7 mM MgSO4, 5 mM ADP, 1 mM EDTA. Reactions were then quenched, neutralized, and analyzed with HPLC using a Partisphere SAX column ([Weaver et al., 2013]); 1 ml fractions were collected for liquid scintillation spectrometry. The ATPase activity of PPIP5K2^KD (10–270 μg/ml) was assayed from Pi release following incubation at 37°C for 120–180 min in 20 μl reaction mixtures containing 20 mM Tris/HCl, pH 7.5, 10 mM ATP, 100 mM KCl, 0.1 mM EDTA, and 13 mM MgCl2.
(§2) Protein Expression, Purification, Crystallization and Structure Determination […]
(§3) The structure was further manually rebuilt with COOT and refined with PHENIX and
(§4) REFMAC from the CCP4 package. Ligand topology and parameter files were prepared using
(§5) the PRODRG server. The molecular graphics representations were prepared with the program […]

A further assay concerns the target T2, PPIP5K2^KD E192Q mutant (Homo sapiens, UniProt O43314, E192Q).
T2 construct: The kinase domain of human PPIP5K2 (PPIP5K2^KD; residues 1–366); made in house
T2 sequence (O43314 1-366 E192Q): T1 sequence (O43314 1-366 K54A) with A54K, E192Q
Description: ATPase activity of E192Q mutant. The settings on record: 25 μM, Figure 7E. The method, then: as §1
Protein Expression, Purification, Crystallization and Structure Determination
Full-length human IP6K2, the kinase domain of human PPIP5K2 (PPIP5K2KD; residues 1-
366), and the N-terminally truncated domain used for the crystallography studies (residues
41-366) were all sub-cloned, expressed and purified as before (Wang et al., 2012; Weaver et
al., 2013). […]
as §3, §4
the PRODRG server. The molecular graphics representations were prepared with the program
PyMol (Schrödinger, LLC). The 2D ligand-protein interaction diagrams were generated by
LigPlot+. Atomic coordinates and structure factors have been deposited with the Protein Data
Bank with accession codes: 4NZM, 4NZN, 4NZO.
Mutants were generated using a site-directed mutagenesis kit (Stratagene). Pairs of complementary
primers were designed as shown below, with mutagenic primers underlined (only 5’ primers are […]

For a further assay, the target named is T3, PPIP5K2^KD K103A mutant (Homo sapiens, UniProt O43314, K103A).
T3 construct: The kinase domain of human PPIP5K2 (PPIP5K2^KD; residues 1–366); made in house
T3 sequence (O43314 1-366 K103A): T1 sequence (O43314 1-366 K54A) with A54K, K103A
Description: ATPase activity of K103A mutant. The settings on record: Figures 7B and 7C. The method, then:
as §1, §2, §3, §4, §5

The next assay addresses T4, PPIP5K2^KD R213A mutant (Homo sapiens, UniProt O43314, R213A).
T4 construct: The kinase domain of human PPIP5K2 (PPIP5K2^KD; residues 1–366); made in house
T4 sequence (O43314 1-366 R213A): T1 sequence (O43314 1-366 K54A) with A54K, R213A
In words: ATPase activity of R213A mutant. Particulars: Figures 7B and 7C. The method, then:
as §1

Residue numbers refer to the chain shown, from its start.

Take `O=C(CP(=O)(O)O)O[C@@H]1[C@@H](OP(=O)(O)O)[C@H](OP(=O)(O)O)[C@H](OCc2ccccc2)[C@H](OP(=O)(O)O)[C@H]1OP(=O)(O)O` [compound 2, 2-O-benzyl-5-O-α-phosphonoacetyl-myo-inositol 1,3,4,6-tetrakisphosphate]: the “stimulation of ATPase activity vs wild-type (in words)” value at PPIP5K2^KD K54A mutant and at PPIP5K2^KD R213A mutant was “substantially impaired degree of stimulation” each time. Further, the “rate of ligand-stimulated ATPase activity vs wild-type (in words)” value on PPIP5K2^KD E192Q mutant is listed as “neither of these particular mutations altered the rate”. Also, the “analog-activated ATPase activity compared to wild-type enzyme (in words)” value at PPIP5K2^KD K103A mutant is recorded as “only a slight reduction”.
With `O=P(O)(O)O[C@@H]1[C@@H](OCc2ccccc2)[C@H](OP(=O)(O)O)[C@@H](OP(=O)(O)O)[C@@H](OCc2ccccc2)[C@H]1OP(=O)(O)O` [compound 10, 2,5-di-O-Bn-InsP4], the “stimulation of ATPase activity vs wild-type (in words)” value on PPIP5K2^KD K54A mutant and at PPIP5K2^KD R213A mutant was “substantially impaired degree of stimulation” each time. The “rate of ligand-stimulated ATPase activity vs wild-type (in words)” value on PPIP5K2^KD E192Q mutant was “neither of these particular mutations altered the rate”. In addition, the “analog-activated ATPase activity compared to wild-type enzyme (in words)” value on PPIP5K2^KD K103A mutant is “only a slight reduction”.

(Values after paper PMC4085797, “Synthetic Inositol Phosphate Analogs Reveal that PPIP5K2 Has a Surface-Mounted Substrate Capture Site that Is a Target for Drug Discovery” (Chemistry & Biology, 2014).)
